The values that follow are results of earlier work, collected in US20100221334A1, “COMPOSITIONS INCLUDING LEUKOTRIENE ANTAGONISTS AND NSAIDS AND METHODS OF USING THE SAME” (priority 2007, published 2010).

For the data set the following is noted: general statement on long-acting NSAIDs; species not given.

Consider `CCc1cccc2c3c([nH]c12)C(CC)(CC(=O)O)OCC3` (stereo not shown) [etodolac], for which the pharmacokinetic half-life entry is recorded as “about 7 hours”.
With `Cc1cccc(Nc2ccccc2C(=O)O)c1C` [mefenamic acid], the pharmacokinetic half-life entry is “up to 4 hours”.
In the case of `CC(C(=O)O)c1ccc(-c2ccccc2)c(F)c1` (stereo not shown) [flurbiprofen], the pharmacokinetic half-life result is “about 6 hours”.
For `O=C(c1ccccc1)c1ccc2n1CCC2C(=O)O` (stereo not shown) [ketorolac], the pharmacokinetic half-life was 8 to 9 h.
